Reference: US9138494B2, “Radiolabeled PDE10A ligands” (AbbVie Inc., priority 2011, dated 2015)

What was measured:
PDE10A = PDE10A (Homo sapiens, UniProt Q9Y233); assay: PDE enzymatic inhibition assay (HTRF cAMP kit); format: biochemical; conditions: recombinant PDE10, 20 nM substrate, 60 minutes at 29° C.
Method: Recombinant PDE proteins were used in in vitro enzymatic reaction for measurement of PDE activity. […] The enzymatic activity of PDEs was determined by cAMP measurement kit from CisBio (IBA) using HTRF technology. The PDE enzymatic reaction was carried out in assay buffer (20 mM Tris-HCl pH7.5, 10 mM MgCl2, 0.1% bovine serum albumin) containing enzyme and substrate. The PDE enzymes concentration ranged from 10 pM-250 pM, depending on each enzyme's specific activity. […] The inhibitory effect of compound was determined by incubating various concentration of inhibitor in the enzymatic assay. […] Next, the compound at varying concentration was mixed with PDE enzyme. The reaction was initiated by addition of cyclic nucleotide substrate, and incubated for 60 minutes at 29° C. The reaction was stopped by addition of lysis buffer from assay kit. The cAMP-d2 and anti-cAMP cryptate in the lysis buffer detected the level of cAMP left from the PDE hydrolysis reaction. […] Thus, IC50 value of inhibitor can be obtained by plotting inhibitor concentration against PDE activity at that concentration.

[1] = Rat PK (0.05 mg/kg, iv), free brain concentration and free B/P; format: in vivo
[2] = log D determined by shake flask method; format: physicochemical; conditions: read-out: SF log D
P-gp = P-gp (Homo sapiens (Human), UniProt P08183); assay: MDCK-MDR1 assay, Efflux Ratio (P-gp); format: in vitro ADME; conditions: dog; MDCK-MDR1 cells
P-gp, sequence (P08183 whole entry): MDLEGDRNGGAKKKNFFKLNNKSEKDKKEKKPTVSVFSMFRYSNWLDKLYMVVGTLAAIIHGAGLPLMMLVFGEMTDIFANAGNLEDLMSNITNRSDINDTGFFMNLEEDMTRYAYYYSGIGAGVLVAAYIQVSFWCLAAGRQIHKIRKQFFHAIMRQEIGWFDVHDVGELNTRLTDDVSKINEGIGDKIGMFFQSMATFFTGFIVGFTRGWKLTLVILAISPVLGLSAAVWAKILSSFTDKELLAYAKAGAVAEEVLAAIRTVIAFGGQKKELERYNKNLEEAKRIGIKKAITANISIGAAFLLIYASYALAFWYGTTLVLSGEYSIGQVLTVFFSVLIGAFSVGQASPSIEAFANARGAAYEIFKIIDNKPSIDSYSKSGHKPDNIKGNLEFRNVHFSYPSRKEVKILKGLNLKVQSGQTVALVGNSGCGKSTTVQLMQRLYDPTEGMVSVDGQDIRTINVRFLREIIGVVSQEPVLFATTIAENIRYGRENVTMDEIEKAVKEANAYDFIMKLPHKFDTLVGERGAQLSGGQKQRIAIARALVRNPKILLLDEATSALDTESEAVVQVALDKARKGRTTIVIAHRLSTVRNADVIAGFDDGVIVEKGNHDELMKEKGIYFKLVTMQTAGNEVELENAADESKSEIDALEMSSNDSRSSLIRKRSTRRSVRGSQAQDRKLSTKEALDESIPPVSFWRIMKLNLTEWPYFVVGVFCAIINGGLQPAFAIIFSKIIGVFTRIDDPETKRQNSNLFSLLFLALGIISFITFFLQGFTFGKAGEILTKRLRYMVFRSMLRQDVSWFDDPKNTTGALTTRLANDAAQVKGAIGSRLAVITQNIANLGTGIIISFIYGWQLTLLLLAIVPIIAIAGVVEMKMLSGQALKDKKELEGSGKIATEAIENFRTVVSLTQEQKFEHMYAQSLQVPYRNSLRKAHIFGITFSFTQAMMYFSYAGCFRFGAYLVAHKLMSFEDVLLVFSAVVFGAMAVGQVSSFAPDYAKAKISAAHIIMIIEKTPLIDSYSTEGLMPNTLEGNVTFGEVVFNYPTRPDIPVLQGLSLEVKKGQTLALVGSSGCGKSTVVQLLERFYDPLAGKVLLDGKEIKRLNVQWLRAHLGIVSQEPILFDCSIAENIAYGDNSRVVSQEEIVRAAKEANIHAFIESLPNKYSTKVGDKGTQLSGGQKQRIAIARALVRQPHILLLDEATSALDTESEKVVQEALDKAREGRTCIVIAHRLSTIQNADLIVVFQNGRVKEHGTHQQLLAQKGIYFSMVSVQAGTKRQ

[3] = Human hepatocyte half-life; format: in vitro ADME; conditions: for half-life: hepatocytes, human (H), read-out: Hepatocyte T1/2
Rat hepatocyte half-life = format: in vitro ADME; conditions: hepatocytes; rat (R); read-out: Hepatocyte T1/2
[4] = Monkey microsome half-life; format: in vitro ADME; conditions: monkey microsomes; read-out: Monkey Microsome T1/2
rats [5] = conditions: cited from earlier work
rats [6] = conditions: cited from earlier work; remark: listed apart in the source
rats [7] = conditions: cited from earlier work; remark: listed apart in the source

PDE10A, sequence (Q9Y233 whole entry, looked up): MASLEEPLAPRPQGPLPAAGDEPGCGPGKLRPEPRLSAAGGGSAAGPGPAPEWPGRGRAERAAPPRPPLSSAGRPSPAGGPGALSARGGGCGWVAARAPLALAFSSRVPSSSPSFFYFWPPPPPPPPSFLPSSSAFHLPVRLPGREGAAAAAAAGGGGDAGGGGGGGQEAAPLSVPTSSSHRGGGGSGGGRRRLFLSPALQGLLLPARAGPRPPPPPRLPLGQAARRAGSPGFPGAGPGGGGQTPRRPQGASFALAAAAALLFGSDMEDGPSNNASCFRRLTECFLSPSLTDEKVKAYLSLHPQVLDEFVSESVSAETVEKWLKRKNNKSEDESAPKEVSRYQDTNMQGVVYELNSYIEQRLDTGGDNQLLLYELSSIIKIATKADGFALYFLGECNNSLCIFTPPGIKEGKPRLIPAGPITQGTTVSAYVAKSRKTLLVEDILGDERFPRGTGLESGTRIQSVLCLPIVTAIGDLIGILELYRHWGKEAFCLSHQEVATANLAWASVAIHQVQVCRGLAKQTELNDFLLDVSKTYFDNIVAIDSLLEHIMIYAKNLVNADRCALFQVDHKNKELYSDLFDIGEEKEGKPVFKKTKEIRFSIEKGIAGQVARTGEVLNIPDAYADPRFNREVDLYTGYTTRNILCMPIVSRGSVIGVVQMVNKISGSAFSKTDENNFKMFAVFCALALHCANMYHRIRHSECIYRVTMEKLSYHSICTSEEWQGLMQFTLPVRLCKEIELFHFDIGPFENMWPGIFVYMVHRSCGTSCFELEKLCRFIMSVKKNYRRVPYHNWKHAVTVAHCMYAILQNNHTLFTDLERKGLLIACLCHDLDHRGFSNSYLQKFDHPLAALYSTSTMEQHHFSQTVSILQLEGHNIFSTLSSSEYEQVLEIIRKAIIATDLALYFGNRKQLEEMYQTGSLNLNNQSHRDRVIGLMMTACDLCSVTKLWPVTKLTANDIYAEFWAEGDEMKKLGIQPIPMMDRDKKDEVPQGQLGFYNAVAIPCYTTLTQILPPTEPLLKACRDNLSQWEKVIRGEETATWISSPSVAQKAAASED

Compound: FCCn1cc(-c2ccncc2)c(-c2ccc(OCc3nc4ccccc4o3)cc2)n1 [Example 3, 2-((4-(1-(2-fluoroethyl)-4-(pyridin-4-yl)-1H-pyrazol-3-yl)phenoxy)methyl)benzo[d]oxazole]
- IC50 (PDE10A): 4.7 nM

Compound: Cn1cc(-c2ccncc2)c(-c2ccc(OCc3ccc4ncccc4n3)cc2)n1 [Example 1, 2-((4-(1-methyl-4-(pyridin-4-yl)-1H-pyrazol-3-yl)phenoxy)methyl)-1,5-naphthyridine]
- IC50 (PDE10A): 1.05 nM

Compound: Cn1cc(-c2ccncc2)c(-c2ccc(OCc3nc4ccccc4c(=O)n3C)cc2)n1 [Example 4, 3-methyl-2-((4-(1-methyl-4-(pyridin-4-yl)-1H-pyrazol-3-yl)phenoxy)methyl)quinazolin-4(3H)-one]
- IC50 (PDE10A): 2 nM

Compound: FCCn1cc(-c2ccncc2)c(-c2ccc(OCc3ccc4ncccc4n3)cc2)n1 [Example 2, 2-((4-(1-(2-fluoroethyl)-4-(pyridin-4-yl)-1H-pyrazol-3-yl)phenoxy)methyl)-1,5-naphthyridine]
- Free B/P (ratio of free brain concentration divided by free plasma concentration) ([1]; 3 min after dose): 0.20
- Free [brain] ([1]; 3 min after dose): 0.692 ng/g
- Free B/P (ratio of free brain concentration divided by free plasma concentration) ([1]; 5 min after dose): 0.13
- Free [brain] ([1]; 5 min after dose): 0.184 ng/g
- logD [2]: 3.71
- efflux ratio (P-gp): 1.95
- half-life [3]: 79 min
- human hepatocyte half-life compared with MP-10, JNJ-41510417 and Janssen B-3 ([3]; human Hepatocyte T1/2): significantly longer human hepatocyte half-lives
- IC50 (PDE10A): 0.2 nM
- half-life (Rat hepatocyte half-life): 12 min
- half-life [4]: 24 min

Compound: Cc1cnc(COc2ccc(-c3nn(CCF)cc3-c3ccncc3)cc2)c(C)c1 [Janssen B-3, reference compound]
- IC50 (PDE10A): 0.98 nM

Compound: FCCn1cc(-c2ccncc2)c(-c2ccc(OCc3ccc4ccccc4n3)cc2)n1 [JNJ-41510417, reference compound]
- IC50 (PDE10A): 0.63 nM

Compound: COc1ccc(Cc2nccc3cc(OC)c(OC)cc23)cc1OC [Papaverine, papaverine]
- PCP-induced hyperactivity (rats [5]): reduced hyperactivity
- reduction of amphetamine-induced hyperactivity (rats [6]): insignificant
- catalepsy on its own (rats [7]; alone): did not cause catalepsy on its own
- effect on haloperidol-induced catalepsy (rats [7]; with haloperidol): potentiated the cataleptic effect

Compound: FCCn1cc(-c2ccncc2)c(-c2ccc(OCc3ncc4ccccc4n3)cc2)n1 [Example 9, 2-((4-(1-(2-fluoroethyl)-4-(pyridin-4-yl)-1H-pyrazol-3-yl)phenoxy)methyl)quinazoline]
- IC50 (PDE10A): 0.18 nM

Compound: Cn1cc(-c2ccncc2)c(-c2ccc(OCc3ccc4ccccc4n3)cc2)n1 [MP-10, reference compound]
- Free [brain] ([1]; 3 min after dose): 0.054 ng/g
- Free [brain] ([1]; 5 min after dose): 0.098 ng/g
- logD [2]: 4.28
- half-life [3]: 54.9 min
- half-life (Rat hepatocyte half-life): 13 min
- half-life [4]: 7 min
